Laboratory results: US20250304566A1, “CRYSTALLINE FORMS OF (5S)-3-[3-(3-CHLORO-2-FLUOROPHENOXY)-6-METHYLPYRIDAZIN-4-YL]-5-(2-CHLORO-4-METHYLBENZYL)-5,6-DIHYDRO-4H-1,2,4-OXADIAZINE” (priority 2022, published 2025)

What was measured:
Type in all cases: physicochemical
[1] = Measurement of Log P values by HPLC on reversed phase columns (EEC directive 79/831 Annex V.A8); settings: reversed phase HPLC column, acidic range, 0.1% formic acid in water and acetonitrile
Protocol: Measurement of Log P values Measurement of Log P values as provided herein was performed according to EEC directive 79/831 Annex V.A8 by HPLC (High Performance Liquid Chromatography) on reversed phase columns with method determined by measurement of LC-UV, in an acidic range, with 0.1% formic acid in water and acetonitrile as eluent (linear gradient from 10% acetonitrile to 95% acetonitrile). Calibration was done with straight-chain alkan2-ones (with 3 to 16 carbon atoms) with known Log P values (measurement of Log P values using retention times with linear interpolation between successive alkanones). Lambda-max-values were determined using UV-spectra from 200 nm to 400 nm and the peak values of the chromatographic signals

[2] = Transition temperature between polymorphic forms A and B (temperature-depending XRPD); settings: for phase change temperature: temperature-depending XRPD
Protocol: To obtain crystals of polymorphic form A, a temperature-depending X-ray powder diffraction (XRPD) experiment was performed, in which recrystallization was allowed at different temperatures.

[3] = Slurry experiment (polymorph obtained, XRPD); settings: for Mod. obtained: 8 days
Protocol: Compound of formula (I) was suspended in the respective solvent and stirred at 0° C., 40° C. (Mya4 stirrer station at 250 u/min) and 80° C. After three to eight days, an additional amount of solvent was added to the suspensions. In two experiments additional substance were added after four days. After eight days the suspensions were dried at ambient conditions.
The obtained crystals were isolated and analyzed by X-ray powder diffraction (XRPD) spectrometry, DSC and TGA.

Cc1ccc(C[C@H]2CON=C(c3cc(C)nnc3Oc3cccc(Cl)c3F)N2)c(Cl)c1 [compound of formula (I), (5S)-3-[3-(3-chloro-2-fluorophenoxy)-6-methylpyridazin-4-yl]-5-(2-chloro-4-methylbenzyl)-5,6-dihydro-4H-1,2,4-oxadiazine]
chromatographic logP [1]: 3.88

Cc1ccc(C[C@H]2CON=C(c3cc(C)nnc3Oc3cccc(Cl)c3F)N2)c(Cl)c1 [polymorphic form A, (5S)-3-[3-(3-chloro-2-fluorophenoxy)-6-methylpyridazin-4-yl]-5-(2-chloro-4-methylbenzyl)-5,6-dihydro-4H-1,2,4-oxadiazine]
thermodynamic stability ([2]; at lower temperatures): very fast transition to polymorphic form B
phase change temperature ([2]; on cooling): 40 °C
phase change temperature ([2]; on heating): 60 °C

Cc1ccc(C[C@H]2CON=C(c3cc(C)nnc3Oc3cccc(Cl)c3F)N2)c(Cl)c1 [polymorphic form B, (5S)-3-[3-(3-chloro-2-fluorophenoxy)-6-methylpyridazin-4-yl]-5-(2-chloro-4-methylbenzyl)-5,6-dihydro-4H-1,2,4-oxadiazine]
Mod. obtained ([3]; Exp. No. 1: Mod. B used, CH3CN, 0 °C): Mod. B
Mod. obtained ([3]; Exp. No. 2: Mod. B used, CH3CN, 40 °C): Mod. B
Mod. obtained ([3]; Exp. No. 3: Mod. B used, CH3CN/water, 80 °C): Mod. B
Mod. obtained ([3]; Exp. No. 4: Mod. B used, Ethanol/water (1:1), 0 °C): Mod. B
Mod. obtained ([3]; Exp. No. 5: Mod. B used, Ethanol/water (1:1), 40 °C): Mod. B
Mod. obtained ([3]; Exp. No. 6: Mod. B used, Ethanol/water (1:1), 80 °C): Mod. B
stability in slurry experiments: recrystallization events ([3]; above the transition temperature range over an extended period of time): No recrystallization events were observed
thermodynamic stability ([2]; below the transition temperatures (49° C. to 66° C.)): thermodynamically stable polymorph
